ChEMBL document CHEMBL1201862, “PubChem BioAssay data set” (2004)
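Protocol summary: plate cells (96-well), add compound at 5 concentrations, incubate 48 h, interpolate endpoints linearly. Here, GI50 denotes the concentration required for 50% inhibition of growth.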 The source made the active and inactive calls. Rule as the data show it: active = GI50 up to about 1.1 µM and inactive = higher.

Key:
Assay in all cases: growth of human tumour cells (NCI), 48 h
[1] = tested on: A498
[2] = tested on: A549
[3] = tested on: EKVX
[4] = tested on: HOP-62
[5] = tested on: HT-29
[6] = tested on: MOLT-4
[7] = tested on: Malme-3M
[8] = tested on: NCI-H460
[9] = tested on: OVCAR-4
[10] = tested on: SK-MEL-5
[11] = tested on: SK-OV-3
[12] = tested on: SN12C
[13] = tested on: SNB-19
[14] = tested on: SNB-75
[15] = tested on: SR
[16] = tested on: U-251
[17] = tested on: CCRF-CEM
[18] = tested on: SF-268
[19] = tested on: HL-60
[20] = tested on: HOP-92

| Compound | GI50 [1] | GI50 [2] | GI50 [3] | GI50 [4] | GI50 [5] | GI50 [6] | GI50 [7] | GI50 [8] | GI50 [9] | GI50 [10] | GI50 [11] | GI50 [12] | GI50 [13] | GI50 [14] | GI50 [15] | GI50 [16] | GI50 [17] | GI50 [18] | GI50 [19] | GI50 [20] |
| --- | --- | --- | --- | --- | --- | --- | --- | --- | --- | --- | --- | --- | --- | --- | --- | --- | --- | --- | --- | --- |
| COc1ccc(/C=N/NC(=O)O)cc1 | > 100 µM (inactive) | > 100 µM (inactive) | > 100 µM (inactive) | > 100 µM (inactive) | > 100 µM (inactive) | > 100 µM (inactive) | > 100 µM (inactive) | > 100 µM (inactive) | > 100 µM (inactive) | > 100 µM (inactive) | > 100 µM (inactive) | > 100 µM (inactive) | > 100 µM (inactive) | > 100 µM (inactive) | > 100 µM (inactive) | > 100 µM (inactive) | – | – | – | – |
| O=C(O)c1ccccc1/C=N\N=C1NCCCCN1 | > 100 µM (inactive) | > 100 µM (inactive) | > 100 µM (inactive) | > 100 µM (inactive) | > 100 µM (inactive) | > 100 µM (inactive) | > 100 µM (inactive) | > 100 µM (inactive) | > 100 µM (inactive) | > 100 µM (inactive) | > 100 µM (inactive) | > 100 µM (inactive) | > 100 µM (inactive) | > 100 µM (inactive) | > 100 µM (inactive) | > 100 µM (inactive) | > 100 µM (inactive) | > 100 µM (inactive) | – | – |
| CCN(CC)CCC(=O)NC1c2ccccc2Oc2c(C)cccc21 (centres undefined) | – | > 100 µM (inactive) | > 100 µM (inactive) | > 100 µM (inactive) | > 100 µM (inactive) | > 100 µM (inactive) | – | > 100 µM (inactive) | > 100 µM (inactive) | > 100 µM (inactive) | > 100 µM (inactive) | > 100 µM (inactive) | > 100 µM (inactive) | > 100 µM (inactive) | > 100 µM (inactive) | > 100 µM (inactive) | > 100 µM (inactive) | > 100 µM (inactive) | > 100 µM (inactive) | – |
| C[s+]1c2ccccc2c2ccccc21 | – | > 100 µM (inactive) | > 100 µM (inactive) | > 100 µM (inactive) | > 100 µM (inactive) | > 100 µM (inactive) | > 100 µM (inactive) | > 100 µM (inactive) | > 100 µM (inactive) | > 100 µM (inactive) | – | > 100 µM (inactive) | 74.1 µM (inactive) | – | 92.5 µM (inactive) | > 100 µM (inactive) | > 100 µM (inactive) | > 100 µM (inactive) | > 100 µM (inactive) | – |
| CC12CC(=O)C3C(C(=O)C1)C32C (centres undefined) | > 100 µM (inactive) | > 100 µM (inactive) | > 100 µM (inactive) | > 100 µM (inactive) | > 100 µM (inactive) | > 100 µM (inactive) | 20.5 µM (inactive) | > 100 µM (inactive) | > 100 µM (inactive) | > 100 µM (inactive) | > 100 µM (inactive) | > 100 µM (inactive) | > 100 µM (inactive) | 45.3 µM (inactive) | > 100 µM (inactive) | > 100 µM (inactive) | > 100 µM (inactive) | > 100 µM (inactive) | – | – |
| O=C1c2ccccc2C(=O)N1CC#CCO | > 100 µM (inactive) | > 100 µM (inactive) | > 100 µM (inactive) | > 100 µM (inactive) | > 100 µM (inactive) | > 100 µM (inactive) | – | > 100 µM (inactive) | > 100 µM (inactive) | > 100 µM (inactive) | 95.5 µM (inactive) | > 100 µM (inactive) | > 100 µM (inactive) | – | > 100 µM (inactive) | > 100 µM (inactive) | > 100 µM (inactive) | > 100 µM (inactive) | > 100 µM (inactive) | – |
| CC(O)c1cc2c(s1)C(=O)c1c(C(C)O)csc1C2=O (centres undefined) | 0.21 µM (active) | 0.184 µM (active) | 0.364 µM (active) | 0.199 µM (active) | 0.586 µM (active) | 0.181 µM (active) | 0.0329 µM (active) | 0.0451 µM (active) | 0.177 µM (active) | 0.0233 µM (active) | 0.401 µM (active) | 0.138 µM (active) | 0.33 µM (active) | 0.316 µM (active) | – | 0.316 µM (active) | 0.173 µM (active) | 0.249 µM (active) | 0.0113 µM (active) | 0.248 µM (active) |
| CC[C@H](C)N(CCN)C(=O)c1cc2ccccc2c(-c2ccccc2Cl)n1 | 4.07 µM (inactive) | 4.41 µM (inactive) | 11.5 µM (inactive) | 17.5 µM (inactive) | 7.74 µM (inactive) | 7.31 µM (inactive) | – | 14.1 µM (inactive) | 14.6 µM (inactive) | – | – | 18.2 µM (inactive) | 16.1 µM (inactive) | – | 10.8 µM (inactive) | 11.6 µM (inactive) | 3.3 µM (inactive) | 1.55 µM (inactive) | 7.67 µM (inactive) | – |
| NC1CC(=O)c2c(Br)csc21 (centres undefined) | 78 µM (inactive) | > 100 µM (inactive) | 67.6 µM (inactive) | 49.8 µM (inactive) | 40.6 µM (inactive) | 46.6 µM (inactive) | 46.8 µM (inactive) | 41 µM (inactive) | – | 61.9 µM (inactive) | > 100 µM (inactive) | 27 µM (inactive) | 36.3 µM (inactive) | 96.2 µM (inactive) | 46.6 µM (inactive) | 10 µM (inactive) | 42.7 µM (inactive) | 39.3 µM (inactive) | 39.2 µM (inactive) | – |
| C[N+]1([O-])[C@H]2CC(OC(=O)[C@H](CO)c3ccccc3)C[C@H]1[C@H]1O[C@H]12 (some centres undefined) | > 100 µM (inactive) | > 100 µM (inactive) | > 100 µM (inactive) | > 100 µM (inactive) | > 100 µM (inactive) | > 100 µM (inactive) | > 100 µM (inactive) | – | > 100 µM (inactive) | > 100 µM (inactive) | > 100 µM (inactive) | > 100 µM (inactive) | > 100 µM (inactive) | > 100 µM (inactive) | > 100 µM (inactive) | > 100 µM (inactive) | 21.2 µM (inactive) | – | – | – |
| CC(C)=CC(=O)CC(=O)C(=O)Nc1ccc(Cl)c(Cl)c1 | > 100 µM (inactive) | > 100 µM (inactive) | > 100 µM (inactive) | > 100 µM (inactive) | > 100 µM (inactive) | > 100 µM (inactive) | > 100 µM (inactive) | > 100 µM (inactive) | > 100 µM (inactive) | – | > 100 µM (inactive) | > 100 µM (inactive) | > 100 µM (inactive) | > 100 µM (inactive) | > 100 µM (inactive) | > 100 µM (inactive) | > 100 µM (inactive) | > 100 µM (inactive) | > 100 µM (inactive) | – |
| CCCCP(CCCC)(CCCC)=C(C(=O)OC)C(C(=O)OC)=C1SC(C(=O)OC)=C(C(=O)OC)S1 | – | 17.6 µM (inactive) | 27.2 µM (inactive) | 20.4 µM (inactive) | 14.5 µM (inactive) | 11.9 µM (inactive) | 18.2 µM (inactive) | 16 µM (inactive) | 16.2 µM (inactive) | 16.2 µM (inactive) | 25.8 µM (inactive) | 15.5 µM (inactive) | 20.3 µM (inactive) | 17.5 µM (inactive) | 34.8 µM (inactive) | 16 µM (inactive) | – | 30.6 µM (inactive) | – | – |
